Measured values reported in paper PMC9487482, “Activity of Tricyclic Pyrrolopyrimidine Gyrase B Inhibitor against Mycobacterium abscessus” (Antimicrobial Agents and Chemotherapy, 2022).

Molecular target: T1, DNA gyrase subunit B (GyrB) (Mycobacteroides abscessus, UniProt B1ME45)
T1 construct: recombinant M. abscessus ATCC 19977 DNA gyrase (A2B2 heterotetramer); with DNA gyrase subunit A (GyrA)
Assay: DNA supercoiling inhibition assay (relaxed pBR322, agarose gel)
Assay type: biochemical

T1 sequence (B1ME45 entry or part of it): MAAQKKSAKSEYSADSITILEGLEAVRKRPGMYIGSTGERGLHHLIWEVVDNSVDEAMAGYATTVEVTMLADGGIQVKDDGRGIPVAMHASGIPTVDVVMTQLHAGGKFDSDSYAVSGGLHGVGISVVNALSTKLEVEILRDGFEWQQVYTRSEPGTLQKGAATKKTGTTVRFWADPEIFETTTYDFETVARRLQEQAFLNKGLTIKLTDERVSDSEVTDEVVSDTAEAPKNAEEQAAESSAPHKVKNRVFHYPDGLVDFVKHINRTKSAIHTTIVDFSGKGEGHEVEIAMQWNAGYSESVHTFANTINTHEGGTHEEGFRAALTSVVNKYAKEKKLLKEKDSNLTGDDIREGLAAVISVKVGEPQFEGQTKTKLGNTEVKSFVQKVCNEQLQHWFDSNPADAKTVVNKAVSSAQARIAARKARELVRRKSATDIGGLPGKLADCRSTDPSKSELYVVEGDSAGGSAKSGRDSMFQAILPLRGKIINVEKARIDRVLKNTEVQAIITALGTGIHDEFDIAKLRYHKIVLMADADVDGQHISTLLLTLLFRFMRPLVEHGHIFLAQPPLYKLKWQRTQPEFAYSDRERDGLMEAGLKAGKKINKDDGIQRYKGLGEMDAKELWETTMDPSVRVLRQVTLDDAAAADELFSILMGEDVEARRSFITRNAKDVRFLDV
T1 sequence (B1ME58 entry or part of it, further chain): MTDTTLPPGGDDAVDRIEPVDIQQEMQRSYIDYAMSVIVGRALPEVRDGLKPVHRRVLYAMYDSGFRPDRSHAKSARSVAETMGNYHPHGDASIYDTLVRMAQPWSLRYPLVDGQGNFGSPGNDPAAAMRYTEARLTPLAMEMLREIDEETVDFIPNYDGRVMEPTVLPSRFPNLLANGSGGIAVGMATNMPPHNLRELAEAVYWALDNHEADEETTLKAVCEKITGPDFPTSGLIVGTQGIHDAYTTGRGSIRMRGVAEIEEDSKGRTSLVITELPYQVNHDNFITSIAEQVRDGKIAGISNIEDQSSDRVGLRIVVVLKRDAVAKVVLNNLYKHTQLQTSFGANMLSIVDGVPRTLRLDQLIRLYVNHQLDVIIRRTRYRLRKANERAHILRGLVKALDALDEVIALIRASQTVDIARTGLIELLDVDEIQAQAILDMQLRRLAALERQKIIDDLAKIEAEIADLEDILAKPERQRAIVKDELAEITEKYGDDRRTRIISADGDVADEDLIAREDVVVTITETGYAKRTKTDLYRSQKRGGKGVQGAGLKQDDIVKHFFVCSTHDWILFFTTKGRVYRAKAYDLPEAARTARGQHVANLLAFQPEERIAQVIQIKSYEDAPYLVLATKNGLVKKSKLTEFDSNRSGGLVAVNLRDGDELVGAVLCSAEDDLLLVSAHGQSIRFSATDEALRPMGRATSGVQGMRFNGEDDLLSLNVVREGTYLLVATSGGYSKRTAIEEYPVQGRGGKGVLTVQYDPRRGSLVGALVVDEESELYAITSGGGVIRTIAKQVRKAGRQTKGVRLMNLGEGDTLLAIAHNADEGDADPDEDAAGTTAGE

CCNC(=O)Nc1nc2cc(-c3cnc(C(C)(C)O)nc3)c(F)c([C@H]3CCCO3)c2[nH]1 [SPR719]
IC50: 1 µM
